According to patent US20070060599A1, “Crystalline forms of [1S-(1alpha, 3alpha, 4beta)]-2-amino-1,9-dihydro-9-[4-hydroxy-3-(hydroxymethyl)-2-methylenecyclopentyl]-6H-purin-6-one” (priority 2005, published 2007):

Tested on: hepatitis B virus infection
Experiment: once daily administration of low dose entecavir pharmaceutical compositions to treat hepatitis B virus infection
Format: in vivo, human
Procedure: In a yet another aspect, the invention provides pharmaceutical compositions comprising Form N-2 and/or Form IP.3-4 crystals of [1S-(1α,3α,4β)]-2-amino-1,9-dihydro-9-[4-hydroxy-3-(hydroxymethyl)-2-methylenecyclopentyl]-6H-purin-6-one and at least one pharmaceutically acceptable carrier or excipient. The pharmaceutical compositions may contain a low dose of from about 0.001 mg to about 25 mg of the active drug ingredient for once daily administration to treat hepatitis B virus infection in an adult human patient or a pediatric patient. Preferred pharmaceutical compositions contain from about 0.01 mg to about 10 mg of the active drug ingredient and most preferred pharmaceutical compositions contain from about 0.01 to about 5 mg of the active drug ingredient. Such preferred and most preferred pharmaceutical compositions are also administered once daily to treat hepatitis B virus infection in an adult or a pediatric patient.

C=C1[C@H](CO)[C@@H](O)C[C@@H]1n1cnc2c(=O)[nH]c(N)nc21 [entecavir, [1S-(1α,3α,4β)]-2-amino-1,9-dihydro-9-[4-hydroxy-3-(hydroxymethyl)-2-methylenecyclopentyl]-6H-purin-6-one monohydrate]
effectiveness in treating hepatitis B virus infection: effective
undesirable side effects (compared with the high dose regimen of U.S. Pat. No. 5,206,244): without undesirable side effects
